# Experimental data reported in article PMC12339163, “Combining Plant Bioactives With Antibiotics for Enhanced Antibiofilm Activity Against Uropathogenic Staphylococcus spp. and Cytotoxicity Evaluation” (Advances in Pharmacological and Pharmaceutical Sciences, 2025).
# Values joined by “and” are separate entries in the source; they are usually repeats but may differ in a detail not shown here. Equal values may be shown once. Read-outs that look alike come from different tables or passages of the source.
# What was measured:
# S. epidermidis biofilm = experiment: Biofilm inhibition assay (MBIC, MTT); assay type: cell-based, Staphylococcus epidermidis; conditions: geometric mean, S. epidermidis (n = 3); for minimal effective concentration: Staphylococcus epidermidis, 24 h
# Experimental: The biofilm formation inhibitory activity of NPs and ATBs was carried out according to the method previously described. A total of 100 µL of bacterial inoculum (1.5 × 10^6 CFU/mL) was used, and 100 µL of each sample was added to the microplate to achieve final concentrations ranging from 0.25 µg/mL to 128 µg/mL for ATBs and from 8 µg/mL to 1024 µg/mL for NPs. Then, the microplate was incubated at 37°C for 24 h. After incubation, the plates were gently emptied and washed three times with a phosphate buffer solution at pH 7.2. Then, the MTT solution (0.5 mg/mL) prepared in PBS was introduced into each well, and the microplate was further incubated at 37°C for 24 h. Untreated wells containing bacterial suspension and MHB supplemented with 1% glucose were considered positive controls, and wells containing only MHB+1% glucose without bacteria were used as blanks. After incubation, the MTT solution was aspirated, then 150 µL of DMSO was introduced to dissolve the formazan crystal formed by viable bacteria, and the optical density (OD) was measured at 570 nm using a microplate reader (VERSA-max). The percentage of biofilm inhibition was calculated using the formula below, and the minimal biofilm inhibitory concentration (MBIC) was recorded as the lowest concentration of NPs or ATBs that inhibited 100% of biofilm:(1) % biofilm inhibition=ODcontrol−ODblank−ODtest−ODblank/ODcontrol−ODblank×100.
# S. aureus biofilm = experiment: Biofilm eradication assay (MBEC, MTT); assay type: cell-based, Staphylococcus aureus; conditions: geometric mean, S. aureus (n = 3); for minimal effective concentration: Staphylococcus aureus, 24 h
# Experimental: (§1) The determination of the biofilm eradication potential of NPs and ATBs was performed as previously described. Briefly, 100 µL of bacterial inoculum (1.5 × 10^6 CFU/mL) and 100 µL of MHB + 1% glucose were introduced into the microplate, incubated at 37°C for 24 h, and the microplate was gently emptied and washed three times with PBS. Then, 200 µL of ATBs or NPs at respective concentrations ranging from 8 to 1024 µg/mL and from 16 to 2048 µg/mL were incubated at 37°C for 24 h. Once incubation was completed, the microplate was processed as described above, and the percentage of biofilm eradication was calculated using the formula below. The minimal biofilm eradicating concentration (MBEC) was recorded as the lowest concentration of the test sample that reduces 100% of biofilm:(2) % biofilm eradication=ODcontrol−ODblank−ODtest−ODblank/ODcontrol−ODblank×100.
# [1] = system: planktonic cells of Staphylococcus saprophyticus; experiment: Checkerboard combination assay, planktonic cells; assay type: cell-based; conditions: S. saprophyticus, mean; for MIC: Staphylococcus saprophyticus
# Experimental: The checkerboard assay, as previously described, was used for the determination of the fractional inhibitory concentration index (FICI). Briefly, 50 µL of MHB was distributed into each well of a 96-well microplate. ATBs were serially diluted along the abscissa, and NPs were serially diluted along the ordinate. Then, 100 µL of bacterial inoculum (1.5 × 10^6 CFU/mL) was added to each well and incubated at 37°C for 24 h. The final concentration ranged from 0.125 to 128 µg/mL for ATBs and 4–512 µg/mL for NPs. After incubation, a volume of 40 µL of INT solution (0.2 mg/mL) was added to each well, and the microplate was incubated at 37°C for 30 min. The wells containing bacterial inoculum and MHB were used as a positive control, while wells containing only MHB + 1% glucose were used as a negative control and used as a blank. Viable bacteria cells change the yellow dye of INT to a pink color. The MICs were considered to be the lowest NP concentrations that prevented the color change medium. Subsequently, the FICI was calculated according to the formula FICI = (MIC of the ATBs in combination/MIC of the ATBs alone) + (MIC of a natural substance in combination/MIC of the natural substance alone). FICI values were interpreted as follows: synergy when FICI ≤ 0.5; additive when 0.5 < FICI ≤ 1; indifference when 1 < FICI ≤ 4; and antagonism when FICI > 4.
# S. epidermidis = experiment: MIC and MBC, broth microdilution; assay type: cell-based, Staphylococcus epidermidis; conditions: geometric mean, S. epidermidis (n = 3)
# Experimental: Seven clinical isolates of Staphylococcus spp. including 2 S. aureus, 3 S. saprophyticus, and 2 S. epidermidis were used. They were isolated from urine samples in our previous study. Two reference strains (S. aureus ATCC1026 and S. epidermidis ATCC35984) obtained from the American Type Culture Collection were also included. They were kept in the mixture of glycerol and Mueller Hinton Broth (MHB) (1:1) at −20°C, and the activation was achieved using the streak technique on Mueller Hinton agar (MHA) medium.
# The MICs of ATBs and NPs were determined by the broth microdilution method as previously described. NPs and ATBs were, respectively, prepared at 4096 µg/mL and 512 µg/mL and serially diluted twofold with MHB in a 96-well microplate at a volume of 100 µL. Then, the wells were filled with 100 µL of inoculum (1.5 × 10^6 CFU/mL) to give final concentrations ranging from 1024 µg/mL to 0.5 µg/mL and 128 µg/mL to 0.062 µg/mL of NPs and ATBs, respectively. The microplates were incubated for 24 h at 37°C. Wells containing only bacterial inoculum were used as the negative control. After incubation, a volume of 40 µL of INT solution (0.2 mg/mL) was added to each well, and the microplate was incubated at 37°C for 30 min. Viable bacteria cells change the yellow dye of INT to a pink color. The MIC was considered as the lowest concentration of the sample at which there was no change in the coloration of the medium, corresponding to the complete inhibition of microbial growth.
# All tests were performed in triplicate.
# [2] = system: Staphylococcus aureus biofilm; experiment: Checkerboard combination assay, biofilm inhibition; assay type: cell-based
# Experimental: (§2) The effect of the combination of ATBs with NPs on biofilm formation was evaluated by determining the FICI, as described above for planktonic cells, except that the MHB was supplemented with 1% glucose.
# (§3) The lowest MBICs of ATBs or NPs that inhibited metabolic activity in the biofilm were determined as described above. The FICI was used to perform the effect of combination and calculated as follows: FICI: (MBIC of ATBs in combinations/MBIC of ATBs alone) + (MBIC of NP in the combinations/MBIC of NP alone). FICI was interpreted as indicated above.
# [3] = system: Staphylococcus epidermidis biofilm; experiment: Checkerboard combination assay, biofilm inhibition; assay type: cell-based
# Experimental: as §2, §3
# [4] = system: Staphylococcus saprophyticus biofilm; experiment: Checkerboard combination assay, biofilm inhibition; assay type: cell-based
# Experimental: as §2, §3
# S. saprophyticus biofilm = experiment: Biofilm eradication assay (MBEC, MTT); assay type: cell-based, Staphylococcus saprophyticus; conditions: geometric mean, S. saprophyticus (n = 3); for minimal effective concentration: Staphylococcus saprophyticus, 24 h
# Experimental: as §1
# [5] = Staphylococcus epidermidis, antibiotics, read-out: MBC
# [6] = Staphylococcus epidermidis, read-out: MIC
# [7] = antibiotic alone, S. aureus biofilm inhibition
# [8] = antibiotic alone, S. epidermidis biofilm inhibition
# [9] = antibiotic alone, S. saprophyticus biofilm inhibition
# [10] = Staphylococcus epidermidis, natural products, read-out: MBC
# [11] = natural product alone, S. aureus biofilm inhibition
# [12] = S. saprophyticus, biofilm inhibition, mean
# [13] = S. epidermidis, biofilm inhibition, mean
# [14] = natural product alone, S. epidermidis biofilm inhibition
# [15] = S. aureus, biofilm inhibition, mean
# [16] = natural product alone, S. saprophyticus biofilm inhibition
SMILES,"MIC ([1]; 24 h, read-out: MIC alone, ATB) [mg/L]","MIC ([1]; read-out: MIC alone, ATB) [mg/L]",MIC (S. epidermidis; [6]) [mg/L],"MIC ([1]; 24 h, read-out: MIC alone, NPs) [mg/L]","MIC ([1]; read-out: MIC alone, NPs) [mg/L]",minimal effective concentration (S. epidermidis biofilm) [µg/mL],minimal effective concentration (S. aureus biofilm) [µg/mL],MBC (S. epidermidis; [5]) [mg/L],"MBIC alone, ATB [2, 7] [µg/mL]","MBIC alone, ATB [3, 8] [µg/mL]","MBIC alone, ATB [4, 9] [µg/mL]",minimal effective concentration (S. saprophyticus biofilm) [µg/mL],MBC (S. epidermidis; [10]) [mg/L],"MBIC alone, NPs [4, 12] [µg/mL]","MBIC alone, NPs [3, 13] [µg/mL]","MBIC alone, NPs [3, 14] [µg/mL]","MBIC alone, ATB [3, 13] [µg/mL]","MBIC alone, ATB [4, 12] [µg/mL]",other results
"COc1ccc2cc3[n+](cc2c1OC)CCc1cc2c(cc1-3)OCO2 [Berberine, berberine]",,,213,213,213,,149,,,,,171,> 1020,106.66,,,,,"MIC alone, NPs ([1]; listed as Ber): 298.66 mg/L; MBIC alone, NPs [2, 11]: 170.66 µg/mL; MBIC alone, NPs ([4]; natural product alone, S. saprophyticus biofilm inhibition, listed as Ber): 74.66 µg/mL and 85.33 µg/mL and 106.66 µg/mL"
"O=c1c(O)c(-c2ccc(O)c(O)c2)oc2cc(O)cc(O)c12 [Quercetin, quercetin]",,,512,427,427,512,128,,,,,171,> 1020,,,,,,"MIC alone, NPs ([1]; listed as Que): 341.33 mg/L; MBIC alone, NPs ([2]; natural product alone, S. aureus biofilm inhibition, listed as Que): 426.66 µg/mL and 512 µg/mL and 362.66 µg/mL; MBIC alone, NPs ([3]; natural product alone, S. epidermidis biofilm inhibition, listed as Que): 512 µg/mL and 384 µg/mL; MBIC alone, NPs ([4]; natural product alone, S. saprophyticus biofilm inhibition, listed as Que): 426.66 µg/mL and 512 µg/mL"
"COc1cc(/C=C/C(=O)CC(=O)/C=C/c2ccc(O)c(OC)c2)ccc1O [Curcumin, curcumin]",,,384,149,149,128,149,,,,,171,> 1020,106.66,128,128,,,"MIC alone, NPs ([1]; listed as Cur): 213.33 mg/L"
"CC1=CC(=O)c2c(O)cccc2C1=O [Plumbagin, plumbagin]",,,90.7,8.66,8.33,8,32,,,,,10.7,> 1020,16,8,8,,,"MBIC alone, NPs [2, 15]: 10.66 µg/mL; MBIC alone, NPs ([2]; natural product alone, S. aureus biofilm inhibition, listed as Pb): 10.66 µg/mL; MBIC alone, NPs [4, 16]: 6.66 µg/mL"
"NC[C@H]1O[C@H](O[C@H]2[C@H](O)[C@@H](O[C@H]3O[C@H](CO)[C@@H](O)[C@H](N)[C@H]3O)[C@H](N)C[C@@H]2N)[C@H](O)[C@@H](O)[C@@H]1O [Kanamycin, kanamycin]",,,,,,,,,1.83,,4.083,,,,,,24.66,4.08,"MBIC (S. epidermidis biofilm): 24.66 µg/mL; MBEC (S. aureus biofilm): 14.66 µg/mL; MIC alone, ATB [1]: 14 mg/L; MBC (S. epidermidis; antibiotics): 12 mg/L; MIC (S. epidermidis): 7.33 mg/L; MBIC alone, ATB ([3]; antibiotic alone, S. epidermidis biofilm inhibition, listed as Kan): 24.66 µg/mL and 43.33 µg/mL; MBEC (S. saprophyticus biofilm): 10.66 µg/mL"
"Cc1ccc(C(C)C)c(O)c1 [Thymol, thymol]",,,341,341,341,213,107,,,,,107,> 1020,128,213.33,213.33,,,"MBIC alone, NPs [2, 15]: 341.33 µg/mL; MBIC alone, NPs [2, 11]: 341.33 µg/mL; MBIC alone, NPs [4, 16]: 128 µg/mL"

# The next lines start with results.
"MIC ([1]; 24 h, read-out: MIC alone, ATB) [mg/L]","MIC ([1]; read-out: MIC alone, ATB) [mg/L]",MIC (S. epidermidis; [6]) [mg/L],"MIC ([1]; 24 h, read-out: MIC alone, NPs) [mg/L]","MIC ([1]; read-out: MIC alone, NPs) [mg/L]",SMILES,minimal effective concentration (S. epidermidis biofilm) [µg/mL],minimal effective concentration (S. aureus biofilm) [µg/mL],MBC (S. epidermidis; [5]) [mg/L],"MBIC alone, ATB [2, 7] [µg/mL]","MBIC alone, ATB [3, 8] [µg/mL]","MBIC alone, ATB [4, 9] [µg/mL]",minimal effective concentration (S. saprophyticus biofilm) [µg/mL],MBC (S. epidermidis; [10]) [mg/L],"MBIC alone, NPs [4, 12] [µg/mL]","MBIC alone, NPs [3, 13] [µg/mL]","MBIC alone, NPs [3, 14] [µg/mL]","MBIC alone, ATB [3, 13] [µg/mL]","MBIC alone, ATB [4, 12] [µg/mL]",other results
192,192,107,,,"C=CC1=C(C(=O)O)N2C(=O)[C@@H](NC(=O)/C(=N\OCC(=O)O)c3csc(N)n3)[C@H]2SC1 [Cefixime, cefixime]",64,42.7,> 128,64,64,48,48,,,,,,,
22,22,26.8,,,"CC1(C)S[C@@H]2[C@H](NC(=O)[C@H](N)c3ccc(O)cc3)C(=O)N2[C@H]1C(=O)O [Amoxicillin, amoxicillin]",2.08,37.3,> 128,1.5,2.08,8.33,9.33,,,,,2.08,8.33,
22,22,1.16,,,"NCC[C@H](O)C(=O)N[C@@H]1C[C@H](N)[C@@H](O[C@H]2O[C@H](CN)[C@@H](O)[C@H](O)[C@H]2O)[C@H](O)[C@H]1O[C@H]1O[C@H](CO)[C@@H](O)[C@H](N)[C@H]1O [Amikacin, amikacin]",3.08,13.3,> 128,1.83,3.08,2.08,13.3,,,,,3.08,2.08,"MBIC alone, ATB [2, 15]: 1.83 µg/mL"
